The test system of data set [1] is S180 ascites tumor of mice. The data set can be described thus: Inhibition of S180 tumor growth in mice. The conditions noted are these: 60 mg/Kg i.p., 10 days. As to the method:
NIH mice used for the tests were about 18-22 grams and divided into 10 mice per group. The liquid (0.2 ml) of S180 ascites tumor of mice was inoculated subcutaneously into the armpit region of mice. The next day after the inoculation, each group of mice were injected intraperitoneally: (1) physiological saline group; (2) solvent control group (DMSO); (3) positive control group [cyclophosphamide 60 mg/(kg·d)]; (4) low-dose group 1: icariside I 2 mg/(kg·d); (5) low-dose group 2: icariside I 5 mg/(kg·d); (6) middle-dose group: icariside I 10 mg/(kg·d); (7) high-dose group: icariside I 20 mg/(kg·d). After administration for 10 continuous days, the administration was stopped and on the next day, the mice were weighed and sacrificed with tumor mass stripped and weighed. The physiological saline group and solvent group were used as a control for calculation of tumor inhibition rate.

Data set [2] relates to human peripheral blood mixed lymphocytes. As to the kind of experiment: IFN-γ production in mixed lymphocyte culture (MLC) reaction. The class given is cell-based. To be noted: final concentration 1000 ng/ml, 120 h. Here is the method:
Effect of icariside I on promotion of γ-interferon (interferon-gamma, IFN-γ) production by human peripheral blood mixed lymphocytes during culture (an experimental model mimicking enhancing immunity in human body).
(1) Preparation of human peripheral blood mononuclear cells (PBMCs): following the method in Example 5 (2), peripheral blood PBMCs from two normal human were prepared.
Cell concentrations of freshly isolated peripheral blood mononuclear cells (PBMCs) were adjusted to […] with RPMI1640 complete medium. Then, lymphocytes from two healthy human with equal volumes were mixed to maintain a total cell concentration of […]. Different concentrations (in a gradient) of or no icariside I were added thereto (with final concentration of 100 ng/ml, 1000 ng/ml) followed by fully mixing. Then the cells after stimulation were seeded and cultured in a 96-well round-bottom culture plate. The cell concentration per well was maintained at 2×10^5/ml (200 μl/well) and was incubated at 37° C. with 5% CO2 for 120 h in an incubator. The levels of cytokine IFN-γ were detected.
According to the method stated in Example 5 (4), the γ-interferon generated from human peripheral blood mixed lymphocyte culture (MLC) was detected.
Equal cell concentrations of lymphocytes from healthy human were mixed cultured for five days (120 h). The pharmaceutical icariside I was added (in a gradient of different pharmaceutical concentrations) or not added. […] Among them, the human lymphocyte A control is a group of samples containing only one kind of human lymphocyte, while human lymphocyte B control is a group of samples containing two kinds of human lymphocytes, that is, a control group in which two kinds of human lymphocytes were mixed for culture without adding icariside I. The concentrations of icariside I added were 0.1 and 1 μg/ml respectively. *P<0.05; **P<0.01. […]
Cell concentrations of freshly isolated peripheral blood mononuclear cells (PBMCs) were adjusted to 5×10^5/ml with RPMI1640 complete medium. […] The level of cytokine IFN-γ produced was then detected.

The test system of data set [3] is human peripheral blood mononuclear cells (PBMCs). As to the kind of experiment: Immunological screening model: IFN-γ produced in human PBMCs. The data set is classed as cell-based. From the text: The present inventors have long been researching the active components in traditional Chinese herbal medicine and their applications in immunotherapy. The present inventors have established an immunological test model based on determination of the level of IFN-γ produced in human peripheral blood mononuclear cells (PBMCs). By this model, compounds having promotion (or inhibition) effects on human peripheral blood mononuclear cells (PBMCs) to produce γ-interferon can be screened out from chemical components from various sources including traditional Chinese herbal medicine, medicinal plants and so on. Since the γ-Interferon is an important protein (cytokine) in human body's immune system to resist attacks from diseases, its production level in body directly relates to the body's immunity. Therefore, the model is an ideal tool to screen and find functional pharmaceuticals for improving human immunity.
In addition, all the results and achievements of the present invention are based on the very effective screening model established by the present inventors. Therefore, a further objective of the present invention is to provide an experimental model for screening substances having impacts (either enhance or inhibit) on immunity. […] Finally, by using ELISA techniques, the levels of IFN-γ produced in the culture were measured at different incubation time. […]

With `O=P1(N(CCCl)CCCl)NCCCO1` (stereo not drawn) [cyclophosphamide, reference compound], in data set [1], the “change of body weight (g)” value is “+4.5 g”; the “tumor inhibition rate (%) with physiological saline group as control” value is 42.3%; the “tumor inhibition rate (%) with solvent group as control” value was found to be 55.2%; the “weight of tumor (x ± SD, g)” value is given as 0.6 ± 0.06 g.

As for `COc1ccc(-c2oc3c(CC=C(C)C)c(O[C@@H]4O[C@H](CO)[C@@H](O)[C@H](O)[C@H]4O)cc(O)c3c(=O)c2O[C@@H]2O[C@@H](C)[C@H](O)[C@@H](O)[C@H]2O)cc1` [icariin, reference compound], the “ability to promote human γ-interferon production in mixed lymphocyte culture” value in data set [2] is recorded as “almost no effect”.

In the case of `CC(C)=CCc1c(OC2OC(CO)C(O)C(O)C2O)cc(O)c2c(=O)c(O)c(-c3ccc(O)cc3)oc12` (stereo not drawn) [icariside C], in data set [3], the “effect in promoting PBMCs to generate IFN-γ” value was “significant effect”.
